This passage reports Activity and IC50 results from ChEMBL document CHEMBL3044779, “The action of herbicides on fatty acid biosynthesis and elongation in barley and cucumber” (Pest Manag Sci, 2010).

Each structure is given as a SMILES string. pIC50: −log10 of the molar value.

Assay [1] has as its system Cucumis sativus. Kind of assay: Inhibition of fatty acid synthesis in Cucumis sativus (cucumber) using [14C]acetate assessed as [14C]-labeled 22C fatty acid level at 100 uM after 3 hr by liquid scintillation counting (reference value: 10.2 +/-1.6%). Format: functional. More on the design: scale not given: the % may be the effect or the level left.
Assay [2] relates to Cucumis sativus. The experiment in a line: Inhibition of fatty acid synthesis in Cucumis sativus (cucumber) using [14C]acetate assessed as [14C]-labeled 20C fatty acid level at 100 uM after 3 hr by liquid scintillation counting (reference value: 14.7 +/- 0.6%). Format: functional. More on the design: scale not given: the % may be the effect or the level left.
Assay [3] deals with Hordeum vulgare. Kind of assay: Inhibition of fatty acid synthesis in Hordeum vulgare (barley) using [14C]malonate assessed as [14C]-labeled 24C fatty acid level at 1 uM after 3 hr by liquid scintillation counting (reference value: 20.7 +/- 1.8%). Also on record: scale not given: the % may be the effect or the level left. Format: functional.
The test system of assay [4] is Hordeum vulgare. Kind of assay: Inhibition of fatty acid synthesis in Hordeum vulgare (barley) assessed as inhibition of [14C]acetate incoporation in total fatty acids at 1 uM measured as total disintegration per g of fresh weight after 3 hr by liquid scintillation counting (reference value: 4.6 +/- 1.2 dpm x 10^6 g'1 fresh wt). Format: functional.
Assay [5] relates to Hordeum vulgare. The experiment in a line: Inhibition of fatty acid synthesis in Hordeum vulgare (barley) using [14C]malonate assessed as [14C]-labeled 20C fatty acid level at 1 uM after 3 hr by liquid scintillation counting (reference value: 6.1 +/- 0.5%). Type of assay: functional. More on the design: scale not given: the % may be the effect or the level left.
The subject of assay [6] is Hordeum vulgare. The experiment in a line: Inhibition of fatty acid synthesis in Hordeum vulgare (barley) using [14C]acetate assessed as [14C]-labeled 22C fatty acid level at 1 uM after 3 hr by liquid scintillation counting (reference value: 16.6 +/- 0.6%). Format: functional. More on the design: scale not given: the % may be the effect or the level left.
Assay [7] relates to Hordeum vulgare. Kind of assay: Inhibition of fatty acid synthesis in Hordeum vulgare (barley) using [14C]acetate assessed as [14C]-labeled 18C fatty acid level at 1 uM after 3 hr by liquid scintillation counting (reference value: 42.6 +/- 2.4%). Type of assay: functional. Also on record: scale not given: the % may be the effect or the level left.
Assay [8] has as its system Hordeum vulgare. Kind of assay: Inhibition of fatty acid synthesis in Hordeum vulgare (barley) using [14C]malonate assessed as [14C]-labeled 26C fatty acid level at 1 uM after 3 hr by liquid scintillation counting (reference value: 7.6 +/- 1.8%). Type of assay: functional. Also on record: scale not given: the % may be the effect or the level left.
For assay [9], the system named is Hordeum vulgare. Kind of assay: Inhibition of fatty acid synthesis in Hordeum vulgare (barley) using [14C]malonate assessed as [14C]-labeled 16C fatty acid level at 1 uM after 3 hr by liquid scintillation counting (reference value: 8.7 +/- 0.2%). Format: functional. Also on record: scale not given: the % may be the effect or the level left.
For assay [10], the system named is Hordeum vulgare. Kind of assay: Inhibition of fatty acid synthesis in Hordeum vulgare (barley) using [14C]malonate assessed as [14C]-labeled 18C fatty acid level at 1 uM after 3 hr by liquid scintillation counting (reference value: 30.3 +/- 2.9%). More on the design: scale not given: the % may be the effect or the level left. Type of assay: functional.
The subject of assay [11] is Cucumis sativus. The experiment in a line: Inhibition of fatty acid synthesis in Cucumis sativus (cucumber) assessed as inhibition of [14C]acetate incoporation in total fatty acids at 100 uM measured as total disintegration per g of fresh weight after 3 hr by liquid scintillation counting (reference value: 9.2 +/- 2.1 dpm x 10^6 g'1 fresh wt). Type of assay: functional.

Assay [12] concerns Cucumis sativus. Kind of assay: Inhibition of fatty acid synthesis in Cucumis sativus (cucumber) using [14C]acetate assessed as [14C]-labeled 18C fatty acid level at 100 uM after 3 hr by liquid scintillation counting (reference value: 43.9 +/- 3.6%). More on the design: scale not given: the % may be the effect or the level left. Type of assay: functional.
Assay [13] relates to Hordeum vulgare. Kind of assay: Inhibition of fatty acid synthesis in Hordeum vulgare (barley) using [14C]acetate assessed as [14C]-labeled 16C fatty acid level at 1 uM after 3 hr by liquid scintillation counting (reference value: 23.3 +/- 0.2%). More on the design: scale not given: the % may be the effect or the level left. Format: functional.
Assay [14] relates to Cucumis sativus. The experiment in a line: Inhibition of fatty acid synthesis in Cucumis sativus (cucumber) using [14C]acetate assessed as [14C]-labeled 16C fatty acid level at 100 uM after 3 hr by liquid scintillation counting (reference value: 31 +/- 2.8%). Type of assay: functional. Also on record: scale not given: the % may be the effect or the level left.
Assay [15] relates to Hordeum vulgare. The experiment in a line: Inhibition of fatty acid synthesis in Hordeum vulgare (barley) assessed as inhibition of [14C]malonate incoporation in total fatty acids at 1 uM measured as total disintegration per g of fresh weight after 3 hr by liquid scintillation counting (reference value: 5.4 +/- 0.9 1 dpm x 10^6 g'1 fresh wt). Type of assay: functional.
Assay [16] has as its system Hordeum vulgare. The experiment in a line: Inhibition of fatty acid synthesis in Hordeum vulgare (barley) using [14C]malonate assessed as [14C]-labeled 22C fatty acid level at 1 uM after 3 hr by liquid scintillation counting (reference value: 26.7 +/- 2.6%). Format: functional. More on the design: scale not given: the % may be the effect or the level left.
In assay [17] the test system is Hordeum vulgare. The experiment in a line: Inhibition of fatty acid synthesis in Hordeum vulgare (barley) using [14C]acetate assessed as [14C]-labeled 24C fatty acid level at 1 uM after 3 hr by liquid scintillation counting (reference value: 11 +/- 0.8%). Type of assay: functional. Also on record: scale not given: the % may be the effect or the level left.
The target in assay [18] is T1, Acetyl-CoA carboxylase (Zea mays, UniProt Q3V4E6). Kind of assay: Inhibition of Zea mays (maize) cytosolic ACCase using acetyl-coA as substrate assessed as inhibition of [14C]NaHCO3 incorporation into malonyl-coA incubated for 10 min prior to substrate addition measured for 20 min by liquid scintillation counting.
In assay [19] the target is T1, Acetyl-CoA carboxylase. Kind of assay: Inhibition of Zea mays (maize) chloroplastic ACCase using acetyl-coA as substrate assessed as inhibition of [14C]NaHCO3 incorporation into malonyl-coA incubated for 10 min prior to substrate addition measured for 20 min by liquid scintillation counting.
Assay [20] concerns Hordeum vulgare. Kind of assay: Inhibition of fatty acid synthesis in Hordeum vulgare (barley) using [14C]acetate assessed as [14C]-labeled 20C fatty acid level at 1 uM after 3 hr by liquid scintillation counting (reference value: 6.6 +/- 2.3%). Type of assay: functional. More on the design: scale not given: the % may be the effect or the level left.

T1 sequence (Q3V4E6 whole entry): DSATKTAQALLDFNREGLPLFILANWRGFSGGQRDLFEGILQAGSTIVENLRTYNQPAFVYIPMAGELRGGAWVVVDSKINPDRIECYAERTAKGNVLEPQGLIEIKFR

Turning to `CCc1cc(C)cc(CC)c1C1C(=O)N2CCOCCN2C1=O` [PINOXADEN DIONE], the Activity came out at 11.9% in assay [1]; 10.1% in assay [2]; 27.7% in [3]; 2.8 ×10⁶ dpm in [4]; 7.7% in [5]; 32.7% in assay [6]. For the same molecule, the Activity in [7] was found to be 18.1%; in assay [8], 13.8%; in assay [9] it was 0.5%; in assay [10], 8.3%; in assay [11], 9.2 ×10⁶ dpm; in assay [12] it was 47.4%. Besides, the Activity in [13] worked out at 3.1%; in assay [14], 30.4%; in assay [15] it was 5.1 ×10⁶ dpm; in [16], 41.9%; in assay [17] it was 32.6%; in assay [20] it was 3.6%. Besides, the results for the pIC50 in assay [18] and in assay [19] were 4.77 and 6.96, respectively.
